Target: T1, tyrosinase activity in mouse melanoma B16-F10 cells (Mus musculus, UniProt P11344)
T1 construct: Mouse melanoma B16-F10 cells were used; endogenous in cells; host or cells: mouse melanoma B16-F10 cells
T1 sequence (P11344 19-533): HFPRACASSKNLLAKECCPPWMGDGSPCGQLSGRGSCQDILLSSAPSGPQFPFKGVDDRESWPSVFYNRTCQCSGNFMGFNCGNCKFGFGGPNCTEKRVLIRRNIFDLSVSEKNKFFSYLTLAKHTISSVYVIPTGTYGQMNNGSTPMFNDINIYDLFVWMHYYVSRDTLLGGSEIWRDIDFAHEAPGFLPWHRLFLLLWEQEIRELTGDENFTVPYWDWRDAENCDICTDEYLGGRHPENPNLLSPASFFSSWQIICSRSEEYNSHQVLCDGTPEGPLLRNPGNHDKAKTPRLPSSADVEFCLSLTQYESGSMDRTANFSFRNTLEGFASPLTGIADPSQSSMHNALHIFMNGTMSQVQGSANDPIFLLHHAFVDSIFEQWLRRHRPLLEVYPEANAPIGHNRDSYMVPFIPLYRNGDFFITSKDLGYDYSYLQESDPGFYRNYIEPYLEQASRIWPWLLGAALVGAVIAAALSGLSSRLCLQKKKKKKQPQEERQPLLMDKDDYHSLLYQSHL
Experiment: Inhibition of tyrosinase (melanogenesis induction firstly, then administration), L-DOPA conversion
Type: cell-based
Conditions: 250 ppm arbutin, 6 ppm resveratrol, 8 ppm curcumin, 8 ppm compositions; 48 hours after α-MSH; absorbance 405 nm within 60 minutes

Row | SMILES | activity of tyrosinase compared with control group (in words)
1 | OC[C@H]1O[C@@H](Oc2ccc(O)cc2)[C@H](O)[C@@H](O)[C@@H]1O [arbutin] | reduced the activity of tyrosinase
2 | COc1cc(/C=C/C(=O)CC(=O)/C=C/c2ccc(O)c(OC)c2)ccc1O [curcumin] | reduced the activity of tyrosinase
